According to patent US20100197787A1, “Composition for Prevention of Hypoglycemic Condition” (priority 2005, published 2010):

Assays:
rat brain cells [1] = test: Promoting activity of intravenously administered BCAA in incorporation of carbohydrate into the brain (2DG-6P amount); assay type: in vivo; settings: at 24 hours after intravenous administration, 1.5% by mass in 5% by mass glucose, 10 mL/kg/hr, male SD rats, versus control group (5% glucose) and mixed amino acid group, FIG. 2
From the text: Control group: A solution prepared by dissolving glucose at a concentration of 5% by mass in purified water was used as the test solution for the control group. Mixed amino acid group: A solution prepared by dissolving […] (registered trademark, manufactured by Otsuka Pharmaceutical Co., Ltd.) at a concentration of 1.5% by mass in purified water containing 5% by mass glucose was used as the test solution for the mixed amino acid group. Leucine group: A solution prepared by dissolving L-leucine at a concentration of 1.5% by mass in purified water containing 5% by mass glucose was used as the test solution for the leucine group. Isoleucine group: A solution prepared by dissolving L-isoleucine at a concentration of 1.5% by mass in purified water containing 5% by mass glucose was used as the test solution for the isoleucine group. Valine group: A solution prepared by dissolving L-valine at a concentration of 1.5% by mass in purified water containing 5% by mass glucose was used as the test solution for the valine group. Male […] SD rats (Nippon Clare) were kept for 14 days and given free access to food (purified feed: AIN-93G manufactured by Nippon Nosan Kogyo Co., Ltd.) and water. At the age of 8-week-old, the rats were grouped depending on the body weight into 5 groups (control group, mixed amino acid group, leucine group, isoleucine group and valine group). After the grouping, under ether anesthesia, the cervical region of each rat was opened, and a catheter was inserted into the jugular vein. The other end of the catheter was passed subcutaneously, exposed on the back and connected via a harness to, and fixed to, a swivel. Then each rat was housed in a separate metabolism cage. […] The separated plasma was measured for its 2DG level and blood glucose level in the same manner as in the test method in Test Example 1. […] After blood removal, the brain tissue was removed, mixed with 1N NaOH that was 4 parts of the brain tissue by weight, and then heated in a water bath at 60° C. for 1 hour to lyse the brain tissue. To the brain tissue lysate solution, 1N HCl in the same amount as that of 1N NaOH was added, thereby neutralizing the solution to give a neutralized homogenate of the brain tissue. The amount of 2DG-6P in the neutralized homogenate was measured in the same manner as in the test method in Test Example 1, to determine the amount of the carbohydrate incorporated into the brain cells. In statistical processing, after analysis of variance, Dunnett's multiple comparison with the control was carried out to test significant difference.

rat brain cells [2] = test: Promoting activity of orally administered branched amino acid in incorporation of carbohydrate into the brain (2DG-6P amount); assay type: in vivo; settings: 1 hour after oral administration of suspension, 0.45 g/15 mL/kg BW, male Wistar rats, versus control group (physiological saline), FIG. 1
Procedure: Leucine group: An L-leucine suspension prepared by adding 3 g L-leucine to 100 mL physiological saline and suspending it with a homogenizer was used as a test solution of leucine group. Isoleucine group: An L-isoleucine suspension prepared by adding 3 g L-isoleucine to 100 mL physiological saline and suspending it with a homogenizer was used as a test solution of isoleucine group. Male 6-week-old Wistar rats (Charles River Japan, Inc.) were kept for 14 days and given free access to food (purified feed: AIN-93G manufactured by Nippon Nosan Kogyo Co., Ltd.) and water. At the age of 8-week-old, the rats were grouped depending on the body weight into 3 groups (control group, leucine group and isoleucine group). After the grouping, under ether anesthesia, the cervical region of each rat was opened, and a catheter was inserted into the jugular vein. The other end of the catheter was passed subcutaneously, exposed on the back and connected via a harness to, and fixed to, a swivel. Then each rat was housed in a separate metabolism cage. Physiological saline was administered via the catheter continuously at a rate of 1 mL/hr/body to the rat. […] 20 μL of the plasma was placed in a vial for liquid scintillation counter measurement, and then 5 mL scintillator was added to and mixed with the plasma, which was then measured for its tritium level (count) with a liquid scintillation counter to determine the amount of 2DG. The blood glucose level was measured by a glucose oxidase dye method. […] 900 μL of the separated supernatant was placed in a vial for liquid scintillation counter measurement, and then 5 mL scintillator was added to and mixed with the supernatant, which was then measured for its tritium level (count) with a liquid scintillation counter to determine the amount of 2DG. […] 900 μL of the separated supernatant was placed in a vial for liquid scintillation counter measurement, and then 10 mL scintillator was added to and mixed with the supernatant, which was then measured for its tritium level (count) with a liquid scintillation counter to determine the amount of 2DG and 2DG-6P. […]

Structure (SMILES) | amount of the carbohydrate incorporated into brain cells (amount of 2DG-6P) (rat brain cells [1]) | amount of the carbohydrate incorporated into brain cells (amount of 2DG-6P) (rat brain cells [1]; listed as isoleucine) | amount of the carbohydrate incorporated into brain cells (amount of 2DG-6P) (rat brain cells [2]) | amount of the carbohydrate incorporated into brain cells (amount of 2DG-6P) (rat brain cells [2]; listed as isoleucine) | amount of the carbohydrate incorporated into brain cells (amount of 2DG-6P) (rat brain cells [1]; listed as valine)
CC[C@H](C)[C@H](N)C(=O)O [L-isoleucine] | higher than that of the control group and of the mixed amino acid group | tendency to promote incorporation of the carbohydrate into brain cells was recognized | higher than that of the control group | significantly promoted | –
CC(C)C[C@H](N)C(=O)O [L-leucine] | higher than that of the control group and of the mixed amino acid group | – | higher than that of the control group | – | –
CC(C)[C@H](N)C(=O)O [L-valine] | higher than that of the control group and of the mixed amino acid group | – | – | – | tendency to promote incorporation of the carbohydrate into brain cells was recognized
